Test results as given in ChEMBL document CHEMBL5143535, “Novel O-acylated (E)-3-aryl-6,7-dihydrobenzisoxazol-4(5H)-one oximes targeting HSP90-HER2 axis in breast cancer cells” (Bioorg Med Chem, 2022).
The source made the active and inactive calls. The rule behind the calls is not given here.

Legend:
MCF7 = assay: Antiproliferative activity against human MCF7 cells measured after 72 hrs by MTT assay; assay type: functional, cell-based; details: MCF7, 72 h
MDA-MB-231 = assay: Antiproliferative activity against human MDA-MB-231 cells measured after 72 hrs by MTT assay; assay type: functional, cell-based; details: MDA-MB-231, 72 h
HCC1954 [1] = assay: Antiproliferative activity against human HCC1954 cells measured after 72 hrs by MTT assay; assay type: functional, cell-based; details: HCC1954, 72 h
[2] = Cytotoxicity against human MCF-10A cells measured after 72 hrs by MTT assay; assay type: toxicity, cell-based
HCC1954 [3] = assay: Cell cycle arrest in human HCC1954 cells assessed as increase in cell accumulation at sub-G1 phase measured after 48 hrs by propidium iodide staining based flow cytometry; assay type: functional; details: dose 10-20 µM, DDE = dose-dependent effect
HCC1954 [4] = assay: Cell cycle arrest in human HCC1954 cells assessed as cell accumulation at sub-G1 phase at 20 uM measured after 48 hrs by propidium iodide staining based flow cytometry relative to control; assay type: functional
HCC1954 [5] = assay: Cell cycle arrest in human HCC1954 cells assessed as decrease in cell accumulation at G1 phase at 10 to 20 uM measured after 48 hrs by propidium iodide staining based flow cytometry; assay type: functional; details: dose 10-20 µM
HCC1954 [6] = assay: Induction of apoptosis in human HCC1954 cells assessed as increase in cleaved caspase-9 expression at 10 to 20 uM measured after 72 hrs by Western blot analysis; assay type: functional, cell-based; details: dose 10-20 µM
HCC1954 [7] = assay: Induction of apoptosis in human HCC1954 cells assessed as increase in cleaved PARP expression at 10 to 20 uM measured after 72 hrs by Western blot analysis; assay type: functional, cell-based; details: dose 10-20 µM
HCC1954 [8] = assay: Induction of apoptosis in human HCC1954 cells assessed as reduction in NF-kappaB expression at 10 to 20 uM measured after 72 hrs by Western blot analysis; assay type: functional, cell-based; details: dose 10-20 µM
[9] = molecular target: T1, Heat shock protein HSP90 (Homo sapiens) (UniProt P07900+P08238); assay: Inhibition of HSP90 in human HCC1954 cells assessed as down regulation of AKT expression at 10 to 20 uM measured after 72 hrs by Western blot analysis; assay type: cell-based; details: dose 10-20 µM
[10] = molecular target: T1, Heat shock protein HSP90 (Homo sapiens); assay: Inhibition of HSP90 in human HCC1954 cells assessed as reduction in AKT phosphorylation at 10 to 20 uM measured after 72 hrs by Western blot analysis; assay type: cell-based; details: dose 10-20 µM
[11] = molecular target: T1, Heat shock protein HSP90 (Homo sapiens); assay: Inhibition of HSP90 in human HCC1954 cells assessed as down regulation of ERK1/2 expression at 10 to 20 uM measured after 72 hrs by Western blot analysis; assay type: cell-based; details: dose 10-20 µM
[12] = molecular target: T1, Heat shock protein HSP90 (Homo sapiens); assay: Inhibition of HSP90 in human HCC1954 cells assessed as down regulation of EGFR expression at 10 to 20 uM measured after 72 hrs by Western blot analysis; assay type: cell-based; details: dose 10-20 µM
[13] = Effect on HSP70 expression in human HCC1954 cells at 10 to 20 uM measured after 72 hrs by Western blot analysis; assay type: toxicity, cell-based; details: hcc1954, 72 h, dose 10-20 µM
HCC1954 [14] = assay: Antiproliferative activity against human HCC1954 cells measured after 72 hrs by SRB assay; assay type: functional, cell-based; details: HCC1954, 72 h
[15] = molecular target: T1, Heat shock protein HSP90 (Homo sapiens); assay: Inhibition of HSP90 in human HCC1954 cells assessed as down regulation of HER2 expression at 10 to 20 uM measured after 72 hrs by Western blot analysis; assay type: cell-based; details: dose 10-20 µM

Row | SMILES | IC50 (MCF7) [µM] | IC50 (MDA-MB-231) [µM] | IC50 (HCC1954 [1]) [µM] | other results
1 | Nc1cccc(C(=O)Nc2cccc(C(=O)O/N=C3\CCCc4noc(-c5ccc(F)cc5)c43)c2)c1 | > 25 | > 25 | > 25 | 
2 | CC1(C)C/C(=N\OC(=O)c2ccccc2NC(=O)c2ccccc2F)c2c(-c3ccc(F)cc3)noc2C1 | > 25 | > 25 | > 25 | 
3 | Nc1cccc(C(=O)Nc2cccc(C(=O)O/N=C3\CCCc4onc(-c5ccc(F)cc5)c43)c2)c1 | > 25 | > 25 | > 25 | 
4 | CC(C)(C)OC(=O)Nc1cccc(C(=O)Nc2cccc(C(=O)O/N=C3\CCCc4onc(-c5ccc(F)cc5)c43)c2)c1 | > 25 | > 25 | > 25 | 
5 | COc1cc(/C=C(\C#N)C(N)=O)cc(CSc2nc3ccccc3s2)c1O |  |  |  | IC50 (HCC1954 [14]): 30 µM
6 | COc1ccc(-c2noc3c2/C(=N/OC(=O)c2cccc(NC(=O)c4cccc(F)c4)c2)CC(C)(C)C3)cc1OC | > 25 | > 25 | > 25 | 
7 | O=C(O)c1cccc(NC(=O)c2cccc(F)c2)c1 | > 25 | > 25 | > 25 | 
8 | COc1ccc(-c2onc3c2/C(=N/OC(=O)c2cccc(NC(=O)c4cccc(F)c4)c2)CC(C)(C)C3)cc1OC | > 25 | > 25 | > 25 | 
9 | O/N=C1\CCCc2onc(-c3cccc(F)c3)c21 | > 25 | > 25 | > 25 | 
10 | O=C(Nc1cccc(C(=O)O/N=C2\CCCc3onc(-c4ccccc4F)c32)c1)c1cccc(F)c1 | > 25 | 6.2 | > 25 | 
11 | O=C(Nc1ccccc1C(=O)O/N=C1\CCCc2noc(-c3ccc(F)cc3)c21)c1ccccc1F | > 25 | > 25 | > 25 | 
12 | COc1ccc(-c2noc3c2/C(=N/OC(=O)c2cccc(NC(=O)c4cccc(F)c4)c2)CCC3)cc1OC | > 25 | > 25 | > 25 | 
13 | CC(=O)Nc1ccccc1C(=O)O/N=C1\CCCc2noc(-c3ccc(F)cc3)c21 | > 25 | > 25 | > 25 | 

Further lines, with some results ahead:

Row | IC50 (MCF7) [µM] | IC50 (MDA-MB-231) [µM] | IC50 (HCC1954 [1]) [µM] | SMILES | other results
14 | > 25 | > 25 | > 25 | CC1(C)C/C(=N\OC(=O)c2cccc(NC(=O)c3cccc(F)c3)c2)c2c(noc2-c2cccc(F)c2)C1 | 
15 | 6.2 | > 25 | 6 | COc1cc(-c2onc3c2/C(=N/OC(=O)c2cccc(NC(=O)c4cccc(F)c4)c2)CC(C)(C)C3)ccc1O | IC50 at 72 h [2]: > 30 µM; Activity (HCC1954 [3]): Dde; Activity (HCC1954 [4]): 50%; Activity (HCC1954 [5]): Active; Activity (HCC1954 [6]): Active; Activity (HCC1954 [7]): Active; Activity (HCC1954 [8]): Active; inhibition [9]: Active; inhibition [10]: Active; inhibition [11]: Active; inhibition [12]: Active; Activity [13]: Non-Toxic; IC50 (HCC1954 [14]): 6 µM; inhibition [15]: Active
16 | 4.7 | 8.7 | > 25 | O=C(Nc1cccc(C(=O)O/N=C2\CCCc3onc(-c4cccc(F)c4)c32)c1)c1cccc(F)c1 | 
17 | > 25 | 9.3 | > 25 | O=C(Nc1cccc(C(=O)O/N=C2\CCCc3noc(-c4cccc(F)c4)c32)c1)c1cccc(F)c1 | 
18 | 25 | > 25 | > 25 | CC1(C)C/C(=N\OC(=O)c2cccc(NC(=O)c3cccc(F)c3)c2)c2c(-c3cccc(F)c3)noc2C1 | 
19 | > 25 | > 25 | > 25 | COc1cccc(C(=O)Nc2cccc(C(=O)O/N=C3\CCCc4onc(-c5ccc(OC)c(OC)c5)c43)c2)c1 | 
20 | > 25 | > 25 | > 25 | O=C(Nc1cccc(C(=O)O/N=C2\CCCc3noc(-c4ccc(F)cc4)c32)c1)c1cccc(F)c1 | 
21 | > 25 | > 25 | > 25 | O=C(Nc1ccccc1C(=O)O/N=C1\CCCc2onc(-c3ccc(F)cc3)c21)c1cccc(F)c1 | 
22 | 25 | > 25 | > 25 | COc1ccc(-c2noc3c2/C(=N/OC(=O)c2cccc(NC(=O)c4cccc(N)c4)c2)CCC3)cc1OC | 
23 | 5.2 | > 25 | > 25 | CC1(C)C/C(=N\OC(=O)c2cccc(NC(=O)c3cccc(F)c3)c2)c2c(-c3ccc(F)cc3)noc2C1 | 
